Where two headings read alike, the source gives them in different places.
How the values were obtained:
[1] = biological target: wild-type human cardiac sodium channel, hNaV 1.5 (Peak INa) (Homo sapiens, UniProt Q14524); assay: Peak INa screening assay (tonic block and use-dependent block); format: cell-based
Method: The assay uses an HEK293 (human embryonic kidney) cell line heterologously expressing the wild-type human cardiac sodium channel, hNaV 1.5, purchased from Millipore (Billerica, Mass.). No beta subunits were coexpressed with the Na channel alpha subunit. Cells are maintained with standard tissue culture procedures and stable channel expression is maintained with 400 μg/mL Geneticin in the culture medium. […] Currents are digitized at 25 kHz and low-pass filtered at 5 kHz and stored in the Sophion Bioscience Oracle database (Sophion Bioscience, Copenhagen, Denmark). Analysis is performed using QPatch Assay software and data are compiled in Excel 2010 (Microsoft, Seattle, Wash., U.S.A.). Compound stocks are routinely made by the Gilead Sample Bank in vials to 10 mM in dimethyl sulfoxide (DMSO). In some cases, when compounds are not soluble in DMSO, they are made in 100% ethanol. Stocks are sonicated as necessary. The extracellular solution for screening Late INa is composed of: 140 mM NaCl, 4 mM KCl, 1.8 mM CaCl2, 1 mM MgCl2, 10 mM HEPES and 10 mM Dextrose with pH adjusted to 7.35 using NaOH. The intracellular solution contains: 105 mM CsF, 20 mM CsCl, 10 NaF, 2 mM EGTA, 10 mM HEPES and 10 mM Dextrose with pH adjusted to 7.35 with CsOH. Compounds are diluted in extracellular solution using a MicroLab Nimbus (Hamilton Robotics, Reno, Nev.) to between 0.3 and 3 μM in glass vials and transferred to glass well plates before robotic addition to the cells. […] It is contemplated that the compounds of Formula I avoid significant block of peak INa. […] The intracellular solution used for the Peak INa assay is the same as outlined for the Late INa assay (see above). After establishing the whole cell recording configuration, channels were stimulated to open with low frequency (0.1 Hz) for so that the recording can be monitored and the extent to which the recording has stabilized can be assessed. The test compound is then applied at 1 or 3 μM was added 2 times at 60 second intervals. After the second compound addition, a 200 second wait period was imposed to allow for equilibration. Voltage protocols for TB and UDB are were performed in the absence and presence of compound and TB and UDB are calculated with respect to the compound free condition. Both TB and UDB were analyzed by incorporating rundown correction for the peak INa.

[2] = biological target: wild-type human cardiac sodium channel, hNaV 1.5 (Late INa) (Homo sapiens, UniProt Q14524); assay: Late INa screening assay (whole cell patch clamp, QPatch, Tefluthrin-induced late current); format: cell-based; conditions: HEK293, % inhibition (percent block of late INa) at 1 uM; HEK293 hNaV1.5; 10 μM Tefluthrin; read-out: Nav1.5 Late INa 1 uM
wild-type human cardiac sodium channel, hNaV 1.5 (Late INa), sequence (Q14524 whole entry): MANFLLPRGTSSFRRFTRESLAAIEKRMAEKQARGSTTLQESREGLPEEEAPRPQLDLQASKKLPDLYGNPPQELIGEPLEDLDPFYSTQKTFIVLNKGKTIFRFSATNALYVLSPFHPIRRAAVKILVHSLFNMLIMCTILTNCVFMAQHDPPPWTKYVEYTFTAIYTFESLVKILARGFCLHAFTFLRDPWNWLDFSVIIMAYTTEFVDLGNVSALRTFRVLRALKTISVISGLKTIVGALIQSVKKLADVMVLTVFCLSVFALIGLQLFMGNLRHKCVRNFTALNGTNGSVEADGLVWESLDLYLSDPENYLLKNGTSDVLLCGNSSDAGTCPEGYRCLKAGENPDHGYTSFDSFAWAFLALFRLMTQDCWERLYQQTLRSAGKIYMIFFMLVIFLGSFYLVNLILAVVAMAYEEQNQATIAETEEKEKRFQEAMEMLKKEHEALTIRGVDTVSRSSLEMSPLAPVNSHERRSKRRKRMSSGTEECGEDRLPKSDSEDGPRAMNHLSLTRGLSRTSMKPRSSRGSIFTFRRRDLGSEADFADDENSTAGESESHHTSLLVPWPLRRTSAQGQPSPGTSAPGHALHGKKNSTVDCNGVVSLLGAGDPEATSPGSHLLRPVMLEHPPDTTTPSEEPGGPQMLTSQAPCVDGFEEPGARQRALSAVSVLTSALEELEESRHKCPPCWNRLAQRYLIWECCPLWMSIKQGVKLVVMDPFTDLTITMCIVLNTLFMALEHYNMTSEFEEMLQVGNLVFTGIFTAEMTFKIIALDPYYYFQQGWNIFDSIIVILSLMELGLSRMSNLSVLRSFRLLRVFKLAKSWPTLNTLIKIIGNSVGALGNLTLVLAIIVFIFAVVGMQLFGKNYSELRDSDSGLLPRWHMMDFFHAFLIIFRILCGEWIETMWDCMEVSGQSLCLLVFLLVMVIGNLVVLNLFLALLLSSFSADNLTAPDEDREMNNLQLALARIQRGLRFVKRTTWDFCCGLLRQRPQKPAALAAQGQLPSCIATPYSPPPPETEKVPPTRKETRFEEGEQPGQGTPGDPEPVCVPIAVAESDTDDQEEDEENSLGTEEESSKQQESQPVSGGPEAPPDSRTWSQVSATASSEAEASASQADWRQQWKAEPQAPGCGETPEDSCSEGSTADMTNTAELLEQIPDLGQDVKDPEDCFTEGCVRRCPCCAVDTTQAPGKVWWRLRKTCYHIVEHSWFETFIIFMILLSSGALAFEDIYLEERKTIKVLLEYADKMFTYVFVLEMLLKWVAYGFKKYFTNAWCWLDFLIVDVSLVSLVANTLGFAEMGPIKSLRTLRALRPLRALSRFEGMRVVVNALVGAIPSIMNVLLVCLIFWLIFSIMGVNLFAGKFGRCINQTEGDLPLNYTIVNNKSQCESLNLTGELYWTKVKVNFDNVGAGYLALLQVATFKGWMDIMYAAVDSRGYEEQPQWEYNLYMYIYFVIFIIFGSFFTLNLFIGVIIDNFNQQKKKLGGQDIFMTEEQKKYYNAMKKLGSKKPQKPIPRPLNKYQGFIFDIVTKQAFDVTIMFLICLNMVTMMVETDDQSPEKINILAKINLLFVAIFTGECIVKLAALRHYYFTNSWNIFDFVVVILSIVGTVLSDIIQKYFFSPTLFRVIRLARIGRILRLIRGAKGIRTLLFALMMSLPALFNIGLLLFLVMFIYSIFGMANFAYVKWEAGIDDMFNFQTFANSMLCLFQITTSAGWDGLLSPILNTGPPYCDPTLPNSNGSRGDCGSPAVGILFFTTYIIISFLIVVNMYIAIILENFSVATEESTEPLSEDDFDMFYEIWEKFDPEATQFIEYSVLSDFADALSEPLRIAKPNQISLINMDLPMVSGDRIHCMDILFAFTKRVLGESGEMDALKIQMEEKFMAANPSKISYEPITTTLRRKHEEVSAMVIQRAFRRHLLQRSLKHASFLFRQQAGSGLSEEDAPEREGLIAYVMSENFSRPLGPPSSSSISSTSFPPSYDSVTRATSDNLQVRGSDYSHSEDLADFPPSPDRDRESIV
Method: The cardiac late sodium current (Late INa) and peak sodium current (Peak INa) assays are performed on an automated electrophysiology platform, QPatch 16X or QPatch HT (Sophion Bioscience, Copenhagen, Denmark) using the whole cell patch clamp technique to measure currents through the cell membrane. The assay uses an HEK293 (human embryonic kidney) cell line heterologously expressing the wild-type human cardiac sodium channel, hNaV 1.5, purchased from Millipore (Billerica, Mass.). No beta subunits were coexpressed with the Na channel alpha subunit. Cells are maintained with standard tissue culture procedures and stable channel expression is maintained with 400 μg/mL Geneticin in the culture medium. Experiments are carried out at 23-25° C.
For both the Late INa and Peak INa assays, series resistance compensation is set to 100% and series resistance and whole-cell compensation are performed automatically. Currents are digitized at 25 kHz and low-pass filtered at 5 kHz and stored in the Sophion Bioscience Oracle database (Sophion Bioscience, Copenhagen, Denmark). Analysis is performed using QPatch Assay software and data are compiled in Excel 2010 (Microsoft, Seattle, Wash., U.S.A.).
Compound stocks are routinely made by the Gilead Sample Bank in vials to 10 mM in dimethyl sulfoxide (DMSO). In some cases, when compounds are not soluble in DMSO, they are made in 100% ethanol. Stocks are sonicated as necessary. The extracellular solution for screening Late INa is composed of: 140 mM NaCl, 4 mM KCl, 1.8 mM CaCl2, 1 mM MgCl2, 10 mM HEPES and 10 mM Dextrose with pH adjusted to 7.35 using NaOH. The intracellular solution contains: 105 mM CsF, 20 mM CsCl, 10 NaF, 2 mM EGTA, 10 mM HEPES and 10 mM Dextrose with pH adjusted to 7.35 with CsOH. Compounds are diluted in extracellular solution using a MicroLab Nimbus (Hamilton Robotics, Reno, Nev.) to between 0.3 and 3 μM in glass vials and transferred to glass well plates before robotic addition to the cells. The 0 mM Na extracellular solution (0Na-ECF) used at the end of each experiment for the Late INa and Peak INa assays to measure baseline current contains: 140 Choline-Cl; 4 mM KCl, 1.8 mM CaCl2; 1 mM MgCl2; 10 mM HEPES and 10 mM Dextrose with pH was adjusted to 7.35 with CsOH.
For the Late INa assay, sodium channels are activated every 10 seconds (0.1 Hz) by depolarizing the cell membrane to −20 mV for 250 milliseconds (ms) from a holding potential of −120 mV.
Compounds were tested to determine their activity in blocking the late sodium current. Late INa was generated by adding 10 μM Tefluthrin (pyrethroid) to the extracellular solution. For the purposes of the screening, Late INa is defined as the mean current between 240 ms and 265 ms during the voltage step to −20 mV. After establishing the whole cell recording configuration, Late INa activator is added to each well 4 times over a 15 minute period so that the late component of the Na current reaches a stable value. Compounds were then added (typically at 0.3 or 1 μM), in the presence of the Late INa activator, with 3 additions over the course of 5 minutes. Measurements were made at the end of exposure to the third compound addition and values were normalized to the current level when all Na^+ was removed from the extracellular solution after two additions of 0Na-ECF.
Results are reported as percent block of late INa and results were analyzed by incorporating rundown correction for the Late INa.

[3] = % inhibition, use-dependent block of peak INa at 3 uM, 3 Hz, pulse 50, read-out: Nav1.5 Peak UDB 3 Hz 3 uM
[4] = read-out: Nav1.5 Peak TB 3 uM, % inhibition, tonic block of peak INa at 3 uM, 0.1 Hz, holding -100 mV

wild-type human cardiac sodium channel, hNaV 1.5 (Peak INa), sequence (Q14524 whole entry): as above

Compound | inhibition at 3 µM [1, 3] | inhibition at 3 µM [1, 4] | inhibition at 1 µM [2]
COc1cc(C(F)(F)F)ccc1-c1ccc2c(c1)CN(Cc1ncccn1)C(=O)O2 [Example 34, 6-(2-methoxy-4-(trifluoromethyl)phenyl)-3-(pyrimidin-2-ylmethyl)-3,4-dihydro-2H-benzo[e][1,3]oxazin-2-one] | < 5% | 27.7% | 44.6%
O=C1Oc2ccc(-c3ccc(C(F)(F)F)cc3)cc2CN1Cc1ccncc1 [Example 2, 3-(pyridin-4-ylmethyl)-6-(4-(trifluoromethyl)phenyl)-3,4-dihydro-2H-benzo[e][1,3]oxazin-2-one] | 16.2% | 18.5% | 41.5%
COc1cc(OC(F)(F)F)ccc1-c1ccc2c(c1)CN(Cc1nc(C)cs1)C(=O)O2 [Example 58, 6-(2-methoxy-4-(trifluoromethoxy)phenyl)-3-((4-methylthiazol-2-yl)methyl)-3,4-dihydro-2H-benzo[e][1,3]oxazin-2-one] | < 5% | 7.9% | 44.1%
Cc1cc(-c2ccc3c(c2)CN(Cc2ncccn2)C(=O)O3)ccc1OC(F)(F)F [Example 5, 6-(3-methyl-4-(trifluoromethoxy)phenyl)-3-(pyrimidin-2-ylmethyl)-3,4-dihydro-2H-benzo[e][1,3]oxazin-2-one] | < 5% | 10.1% | 37.3%
CC1c2cc(-c3ccc(Cl)c(F)c3)ccc2OC(=O)N1Cc1ncccn1 (stereo not drawn) [Example 11, 6-(4-chloro-3-fluorophenyl)-4-methyl-3-(pyrimidin-2-ylmethyl)-3,4-dihydro-2H-benzo[e][1,3]oxazin-2-one] | 5.6% | 19.4% | 32.5%
Cc1cnc(CN2Cc3cc(-c4ccc(C(F)(F)F)cc4)ccc3OC2=O)nc1 [Example 13, 3-((5-methylpyrimidin-2-yl)methyl)-6-(4-(trifluoromethyl)phenyl)-3,4-dihydro-2H-benzo[e][1,3]oxazin-2-one] | 5.6% | 29.4% | 49.6%
Cc1cnc(CN2Cc3cc(-c4ccc(OC(F)(F)F)cc4)ccc3OC2=O)nc1 [Example 12, 3-((5-methylpyrimidin-2-yl)methyl)-6-(4-(trifluoromethoxy)phenyl)-3,4-dihydro-2H-benzo[e][1,3]oxazin-2-one] | < 5% | 16.6% | 50.5%
Cc1ccnc(CN2Cc3cc(-c4ccc(OC(F)(F)F)cc4)ccc3OC2=O)n1 [Example 29, 3-((4-methylpyrimidin-2-yl)methyl)-6-(4-(trifluoromethoxy)phenyl)-3,4-dihydro-2H-benzo[e][1,3]oxazin-2-one] | 14.1% | 36.1% | 61.6%
CCCOc1cc(C(F)(F)F)ccc1-c1ccc2c(c1)CN(Cc1ncccn1)C(=O)O2 [Example 27, 6-(2-propoxy-4-(trifluoromethyl)phenyl)-3-(pyrimidin-2-ylmethyl)-3,4-dihydro-2H-benzo[e][1,3]oxazin-2-one] | 8.1% | 32% | 60.1%
Cc1cnc(CN2Cc3cc(-c4ccc(OC(F)(F)F)cc4F)ccc3OC2=O)nc1 [Example 14, 6-(2-fluoro-4-(trifluoromethoxy)phenyl)-3-((5-methylpyrimidin-2-yl)methyl)-3,4-dihydro-2H-benzo[e][1,3]oxazin-2-one] | < 5% | 24% | 39.3%
Cc1csc(CN2Cc3cc(-c4ccc(OC(F)(F)F)cc4)ccc3OC2=O)n1 [Example 52, 3-((4-methylthiazol-2-yl)methyl)-6-(4-(trifluoromethoxy)phenyl)-3,4-dihydro-2H-benzo[e][1,3]oxazin-2-one] | < 5% | 11.9% | 58%
O=C1Oc2ccc(-c3ccc(OC(F)(F)F)c(F)c3)cc2CN1Cc1ncccn1 [Example 10, 6-(3-fluoro-4-(trifluoromethoxy)phenyl)-3-(pyrimidin-2-ylmethyl)-3,4-dihydro-2H-benzo[e][1,3]oxazin-2-one] | 10.8% | 14.2% | 57.2%
COc1cc(OC(F)(F)F)ccc1-c1ccc2c(c1)CN(CCc1ncccn1)C(=O)O2 [Example 18, 6-(2-methoxy-4-(trifluoromethoxy)phenyl)-3-(2-(pyrimidin-2-yl)ethyl)-3,4-dihydro-2H-benzo[e][1,3]oxazin-2-one] | < 5% | 12.1% | 31.4%
O=C1Oc2ccc(-c3ccc4c(c3)OC(F)(F)O4)cc2CN1Cc1ncccn1 [Example 26, 6-(2,2-difluorobenzo[d][1,3]dioxol-5-yl)-3-(pyrimidin-2-ylmethyl)-3,4-dihydro-2H-benzo[e][1,3]oxazin-2-one] | < 5% | 20.7% | 35.2%
COc1cc(OC(F)(F)F)ccc1-c1ccc2c(c1)CN(Cc1nccc(C)n1)C(=O)O2 [Example 31, 6-(2-methoxy-4-(trifluoromethoxy)phenyl)-3-((4-methylpyrimidin-2-yl)methyl)-3,4-dihydro-2H-benzo[e][1,3]oxazin-2-one] | < 5% | 12.2% | 34.4%
O=C1Oc2ccc(-c3ccc(OC(F)(F)F)cc3F)cc2CN1Cc1ccccn1 [Example 21, 6-(2-fluoro-4-(trifluoromethoxy)phenyl)-3-(pyridin-2-ylmethyl)-3,4-dihydro-2H-benzo[e][1,3]oxazin-2-one] | < 5% | 23% | 44.7%
O=C1Oc2ccc(-c3ccc(C4(C(F)(F)F)CC4)cc3)cc2CN1Cc1ncccn1 [Example 38, 3-(pyrimidin-2-ylmethyl)-6-(4-(1-(trifluoromethyl)cyclopropyl)phenyl)-3,4-dihydro-2H-benzo[e][1,3]oxazin-2-one] | < 5% | 55.6% | 54.2%
